From patent US20240067662A1, “KRAS INHIBITORS” (Bristol-Myers Squibb Company, priority 2022, published 2024)

The molecules below were run against GMPPNP-loaded KRAS G12C (Homo sapiens, UniProt P01116, G12C) (assay: KRAS G12C RAF Disruption Assay (HTRF)). Conditions: recombinant GMPPNP-loaded KRAS G12C (5 nM), 20 min with compound; GST-RAF1 RBD (9 nM); HTRF signal; read-out: KRASG12C RAF Disruption Assay (IC50).
Format: biochemical
Procedure, shortened: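 GMPPNP-loaded KRAS G12C (5 nM) was preincubated with compound for 20 min at room temperature in Tris pH 7.5 buffer with NaCl, MgCl2, DTT and BSA. GST-RAF1 RBD (9 nM) was added for 20 min, then SA-Tb (0.25 nM) for 3 h. IC50 was fitted from the HTRF 520/495 ratio.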

GMPPNP-loaded KRAS G12C, sequence (P01116 1-188 isoform P01116-2 G12C): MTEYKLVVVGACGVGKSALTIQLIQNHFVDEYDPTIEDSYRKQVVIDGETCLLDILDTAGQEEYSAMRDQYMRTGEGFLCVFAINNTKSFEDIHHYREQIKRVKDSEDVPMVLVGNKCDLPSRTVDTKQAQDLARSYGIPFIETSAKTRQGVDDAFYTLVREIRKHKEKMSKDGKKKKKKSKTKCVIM

| IC50 | Compound |
| --- | --- |
| 91 nM | C#Cc1c(F)c(F)cc2cccc(-c3ncc4c(N5CCN(C(=O)/C(F)=C/c6ncccn6)CC5)nc(OC[C@@]56CCCN5C[C@H](F)C6)nc4c3F)c12 [Compound 98, (Z)-1-(4-(7-(8-ethynyl-6,7-difluoronaphthalen-1-yl)-8-fluoro-2-(((2R, 7aS)-2-fluorotetrahydro-IH-pyrrolizin-7a(5H)-yl)methoxy)pyrido[4,3-d]pyrimidin-4-yl)piperazin-1-yl)-2-fluoro-3-(pyrimidin-2-yl)prop-2-en-1-one] |
| 87 nM | C#Cc1cccc2cccc(-c3ncc4c(N5CCC6(CCN6C(=O)/C(F)=C/c6ccccn6)C5)nc(OC[C@@]56CCCN5C[C@H](F)C6)nc4c3F)c12 (single isomer, unassigned) [Compound 102] |
| 110 nM | C#Cc1cccc2cccc(-c3ncc4c(N5CC[C@@H]6CN(C(=O)/C(F)=C/c7ccccn7)C[C@@H]65)nc(OC[C@@]56CCCN5C[C@H](F)C6)nc4c3F)c12 [Compound 85, (Z)-1-((3aR, 6aR)-1-(7-(8-ethynylnaphthalen-1-yl)-8-fluoro-2-(((2R, 7aS)-2-fluorotetrahydro-1H-pyrrolizin-7a(5H)-yl)methoxy)pyrido[4,3-d]pyrimidin-4-yl)hexahydropyrrolo[3,4-b]pyrrol-5(1H)-yl)-2-fluoro-3-(pyridin-2-yl)prop-2-en-1-one] |
| 100 nM | C#Cc1cccc2cccc(-c3ncc4c(N5CCN(C(=O)/C(F)=C/c6ccccn6)CC5)nc(OC[C@@]56CCCN5C[C@H](F)C6)nc4c3F)c12 [Example 29, (Z)-1-(4-(7-(8-ethynylnaphthalen-1-yl)-8-fluoro-2-(((2R, 7aS)-2-fluorotetrahydro-1H-pyrrolizin-7a(5H)-yl)methoxy)pyrido[4,3-d]pyrimidin-4-yl)piperazin-1-yl)-2-fluoro-3-(pyridin-2-yl)prop-2-en-1-one] |
| 170 nM | C#Cc1c(F)ccc2cc(O)cc(-c3ncc4c(N5C[C@H]6CC[C@@H](C5)N6C(=O)/C(F)=C/c5cncc(C)n5)nc(OC[C@@]56CCCN5C[C@H](F)C6)nc4c3F)c12 [Example 26, (Z)-1-((1R, 5S)-3-(7-(8-ethynyl-7-fluoro-3-hydroxynaphthalen-1-yl)-8-fluoro-2-(((2R, 7aS)-2-fluorotetrahydro-1H-pyrrolizin-7a(5H)-yl)methoxy)pyrido[4,3-d]pyrimidin-4-yl)-3,8-diazabicyclo[3.2.1]octan-8-yl)-2-fluoro-3-(6-methylpyrazin-2-yl)prop-2-en-1-one] |
| 11 nM | C#Cc1c(F)ccc2cc(O)cc(-c3ncc4c(N5CCN(C(=O)/C(F)=C/c6ccccn6)CC5)nc(OC[C@@H]5CCCN5CCCN=[N+]=[N-])nc4c3F)c12 [Compound 111, (S,Z)-1-(4-(2-((1-(3-azidopropyl)pyrrolidin-2-yl)methoxy)-7-(8-ethynyl-7-fluoro-3-hydroxynaphthalen-1-yl)-8-fluoropyrido[4,3-d]pyrimidin-4-yl)piperazin-1-yl)-2-fluoro-3-(pyridin-2-yl)prop-2-en-1-one] |
| 300 nM | N#CC[C@H]1CN(c2nc(OC[C@@]34CCCN3C[C@H](F)C4)nc3c(F)c(N4CCOc5cccc(F)c54)ncc23)CCN1C(=O)/C(F)=C/c1nccs1 [Example 61, 2-((S)-1-((Z)-2-fluoro-3-(thiazol-2-yl)acryloyl)-4-(8-fluoro-7-(5-fluoro-2,3-dihydro-4H-benzo[b][1,4]oxazin-4-yl)-2-(((2R, 7aS)-2-fluorotetrahydro-1H-pyrrolizin-7a(5H)-yl)methoxy)pyrido[4,3-d]pyrimidin-4-yl)piperazin-2-yl)acetonitrile] |
| 57 nM | N#CC[C@H]1CN(c2nc(OC[C@@]34CCCN3C[C@H](F)C4)nc3c(F)c(-c4ccccc4C4CCC4)ncc23)CCN1C(=O)/C(F)=C/c1ccccn1 [Compound 81, 2-((2S)-4-(7-(2-cyclobutylphenyl)-8-fluoro-2-(((2R, 7aS)-2-fluorotetrahydro-1H-pyrrolizin-7a(5H)-yl)methoxy)pyrido[4,3-d]pyrimidin-4-yl)-1-((Z)-2-fluoro-3-(pyridin-2-yl)acryloyl)piperazin-2-yl)acetonitrile] |
| 1300 nM | C#Cc1c(F)ccc2cc(O)cc(-c3ncc4c(N5CC6CCC(C5)N6C(=O)/C(Cl)=C/c5ccccn5)nc(OC[C@@]56CCCN5C[C@H](F)C6)nc4c3F)c12 [Compound 8, (Z)-1-((1R, 5S)-3-(7-(8-ethynyl-7-fluoro-3-hydroxynaphthalen-1-yl)-8-fluoro-2-(((2R, 7aS)-2-fluorotetrahydro-1H-pyrrolizin-7a(5H)-yl)methoxy)pyrido[4,3-d]pyrimidin-4-yl)-3,8-diazabicyclo[3.2.I]octan-8-yl)-2-chloro-3-(pyridin-yl)prop-2-en-1-one] |
| 100 nM | C#Cc1cccc2cccc(-c3ncc4c(N5CCN(C(=O)/C(F)=C/c6nccs6)CC5)nc(OC[C@@]56CCCN5C[C@H](F)C6)nc4c3F)c12 [Example 47, (Z)-1-(4-(7-(8-ethynylnaphthalen-1-yl)-8-fluoro-2-(((2R, 7aS)-2-fluorotetrahydro-1H-pyrrolizin-7a(5H)-yl)methoxy)pyrido[4,3-d]pyrimidin-4-yl)piperazin-1-yl)-2-fluoro-3-(thiazol-2-yl)prop-2-en-1-one] |
| 2 nM | C#Cc1c(F)ccc2cc(O)cc(-c3ncc4c(N5CCN(C(=O)/C(F)=C/c6nccs6)CC5)nc(OC[C@]56CCC[C@H]5N(C)CCC6)nc4c3F)c12 [Example 58, (Z)-1-(4-(7-(8-ethynyl-7-fluoro-3-hydroxynaphthalen-1-yl)-8-fluoro-2-(((4aS, 7aR)-1-methyloctahydro-4aH-cyclopenta[b]pyridin-4a-yl)methoxy)pyrido[4,3-d]pyrimidin-4-yl)piperazin-1-yl)-2-fluoro-3-(thiazol-2-yl)prop-2-en-1-one] |
| 38 nM | C#Cc1c(F)ccc2cc(O)cc(-c3ncc4c(N5C[C@@]6(NC(=O)/C(F)=C/c7ccccn7)CC[C@@H]5C6)nc(OC[C@@]56CCCN5C[C@H](F)C6)nc4c3F)c12 [Compound 13, (Z)—N-((1R, 4R)-2-(7-(8-ethynyl-7-fluoro-3-hydroxynaphthalen-1-yl)-8-fluoro-2-(((2R, 7aS)-2-fluorotetrahydro-1H-pyrrolizin-7a(5H)-yl)methoxy)pyrido[4,3-d]pyrimidin-4-yl)-2-azabicyclo[2.2.1]heptan-4-yl)-2-fluoro-3-(pyridin-2-yl)acrylamide] |
| 40 nM | N#CC[C@H]1CN(c2nc(OC[C@@]34CCCN3C[C@H](F)C4)nc3c(F)c(-c4cccc(F)c4C(F)(F)F)ncc23)CCN1C(=O)/C(F)=C/c1nccs1 [Example 71, 2-((S)-1-((Z)-2-fluoro-3-(thiazol-2-yl)acryloyl)-4-(8-fluoro-7-(3-fluoro-2-(trifluoromethyl)phenyl)-2-(((2R, 7aS)-2-fluorotetrahydro-1H-pyrrolizin-7a(5H)-yl)methoxy)pyrido[4,3-d]pyrimidin-4-yl)piperazin-2-yl)acetonitrile] |
